Source: ChEMBL document CHEMBL1201862, “PubChem BioAssay data set” (2004)
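Interpolation was linear, between the two tested concentrations surrounding the appropriate level; five concentrations were tested over 48 hours in 96-well plates. GI50 = concentration required for 50% inhibition of growth.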 Calls of active or inactive are those of the source. Cut-off read from the data, not from the text of the source: active = GI50 up to about 1.1 µM and inactive = higher.

How the values were obtained:
Test in all cases: inhibition of tumour cell growth, NCI panel, 48 h
CAKI-1 = tested on: CAKI-1
T47D = tested on: T47D
UO-31 = tested on: UO-31
SR = tested on: SR
HT-29 = tested on: HT-29
SF-295 = tested on: SF-295
EKVX = tested on: EKVX
RXF 393 = tested on: RXF 393
HCT-116 = tested on: HCT-116
Hs-578T = tested on: Hs-578T
SK-MEL-5 = tested on: SK-MEL-5
NCI-H23 = tested on: NCI-H23
PC-3 = tested on: PC-3
HOP-62 = tested on: HOP-62
NCI-H460 = tested on: NCI-H460
HCT-15 = tested on: HCT-15
OVCAR-8 = tested on: OVCAR-8
SK-MEL-2 = tested on: SK-MEL-2
SK-MEL-28 = tested on: SK-MEL-28
NCI-H226 = tested on: NCI-H226
ACHN = tested on: ACHN
HCC 2998 = tested on: HCC 2998
MDA-MB-231 = tested on: MDA-MB-231
786-0 = tested on: 786-0
CCRF-CEM = tested on: CCRF-CEM
M14 = tested on: M14
A498 = tested on: A498
UACC-257 = tested on: UACC-257
OVCAR-3 = tested on: OVCAR-3
NCI-H522 = tested on: NCI-H522
SN12C = tested on: SN12C
HL-60 = tested on: HL-60
K562 = tested on: K562
SK-OV-3 = tested on: SK-OV-3
SNB-75 = tested on: SNB-75
MDA-N = tested on: MDA-N
NCI/ADR-RES = tested on: NCI/ADR-RES
SNB-19 = tested on: SNB-19
HOP-92 = tested on: HOP-92
COLO 205 = tested on: COLO 205
SF-539 = tested on: SF-539
A549 = tested on: A549
TK-10 = tested on: TK-10
MOLT-4 = tested on: MOLT-4
Malme-3M = tested on: Malme-3M
MDA-MB-435 = tested on: MDA-MB-435
RPMI-8226 = tested on: RPMI-8226
OVCAR-5 = tested on: OVCAR-5
OVCAR-4 = tested on: OVCAR-4
IGROV-1 = tested on: IGROV-1
UACC-62 = tested on: UACC-62
SW-620 = tested on: SW-620
KM12 = tested on: KM12
MCF7 = tested on: MCF7
U-251 = tested on: U-251
BT-549 = tested on: BT-549
DU-145 = tested on: DU-145
LOX IMVI = tested on: LOX IMVI
SF-268 = tested on: SF-268

## CN(C)c1ccc(Cc2cc3c(O)ccc(O)c3cc(Cc3ccc(N(C)C)cc3)c2=O)cc1
CAKI-1
  GI50: 6.46 µM (inactive)
T47D
  GI50: 4.09 µM (inactive)
UO-31
  GI50: 13.1 µM (inactive)
SR
  GI50: 3.08 µM (inactive)
HT-29
  GI50: 19.2 µM (inactive)
SF-295
  GI50: 34.4 µM (inactive)
EKVX
  GI50: 19 µM (inactive)
RXF 393
  GI50: 9.31 µM (inactive)
HCT-116
  GI50: 11.7 µM (inactive)
Hs-578T
  GI50: 44.3 µM (inactive)
SK-MEL-5
  GI50: 19.2 µM (inactive)
NCI-H23
  GI50: 22.4 µM (inactive)
PC-3
  GI50: 15.4 µM (inactive)
HOP-62
  GI50: 45.7 µM (inactive)
NCI-H460
  GI50: 37.4 µM (inactive)
HCT-15
  GI50: 21.5 µM
OVCAR-8
  GI50: 17.1 µM (inactive)
SK-MEL-2
  GI50: 36.6 µM (inactive)
SK-MEL-28
  GI50: 18.9 µM (inactive)
NCI-H226
  GI50: 24.7 µM (inactive)
ACHN
  GI50: 12.5 µM (inactive)
HCC 2998
  GI50: 23 µM (inactive)
MDA-MB-231
  GI50: 20.1 µM (inactive)
786-0
  GI50: 16 µM (inactive)
CCRF-CEM
  GI50: 2.96 µM (inactive)
M14
  GI50: 17.5 µM (inactive)
A498
  GI50: 46.1 µM (inactive)
UACC-257
  GI50: 21.1 µM (inactive)
OVCAR-3
  GI50: 14.3 µM (inactive)
NCI-H522
  GI50: 3.73 µM (inactive)
SN12C
  GI50: 28.2 µM (inactive)
HL-60
  GI50: 3.04 µM (inactive)
K562
  GI50: 2.96 µM (inactive)
SK-OV-3
  GI50: > 100 µM (inactive)
SNB-75
  GI50: > 55.8 µM (inactive)
MDA-N
  GI50: 18.8 µM (inactive)
NCI/ADR-RES
  GI50: 27 µM (inactive)
SNB-19
  GI50: 29.4 µM (inactive)
HOP-92
  GI50: 3.08 µM (inactive)
COLO 205
  GI50: 16.1 µM (inactive)
SF-539
  GI50: 26.1 µM (inactive)
A549
  GI50: 30.5 µM (inactive)
TK-10
  GI50: 18.6 µM (inactive)
MOLT-4
  GI50: 2.92 µM (inactive)
Malme-3M
  GI50: 20.3 µM (inactive)
MDA-MB-435
  GI50: 15.1 µM (inactive)
RPMI-8226
  GI50: 6.25 µM (inactive)
OVCAR-5
  GI50: > 43.9 µM (inactive)
OVCAR-4
  GI50: 18.1 µM (inactive)
IGROV-1
  GI50: 16.1 µM (inactive)
UACC-62
  GI50: 26 µM (inactive)
SW-620
  GI50: 13.6 µM (inactive)
KM12
  GI50: 18.6 µM (inactive)
MCF7
  GI50: 17.3 µM (inactive)
U-251
  GI50: 20 µM (inactive)
BT-549
  GI50: 13.7 µM (inactive)
DU-145
  GI50: 26.9 µM (inactive)
LOX IMVI
  GI50: 17.7 µM (inactive)
SF-268
  GI50: 29.6 µM (inactive)

## Cc1cc2c(cc1C)OC(=O)CC2
CAKI-1
  GI50: > 100 µM (inactive)
T47D
  GI50: > 100 µM (inactive)
UO-31
  GI50: > 100 µM (inactive)
SR
  GI50: > 100 µM (inactive)
HT-29
  GI50: > 100 µM (inactive)
SF-295
  GI50: > 100 µM (inactive)
EKVX
  GI50: > 100 µM (inactive)
RXF 393
  GI50: > 100 µM (inactive)
HCT-116
  GI50: > 100 µM (inactive)
Hs-578T
  GI50: > 100 µM (inactive)
SK-MEL-5
  GI50: > 100 µM (inactive)
NCI-H23
  GI50: > 100 µM (inactive)
PC-3
  GI50: > 100 µM (inactive)
HOP-62
  GI50: > 100 µM (inactive)
NCI-H460
  GI50: > 100 µM (inactive)
OVCAR-8
  GI50: > 100 µM (inactive)
SK-MEL-2
  GI50: > 100 µM (inactive)
SK-MEL-28
  GI50: > 100 µM (inactive)
NCI-H226
  GI50: > 100 µM (inactive)
ACHN
  GI50: > 100 µM (inactive)
HCC 2998
  GI50: > 100 µM (inactive)
MDA-MB-231
  GI50: > 100 µM (inactive)
786-0
  GI50: > 100 µM (inactive)
CCRF-CEM
  GI50: > 100 µM (inactive)
M14
  GI50: > 100 µM (inactive)
A498
  GI50: > 100 µM (inactive)
UACC-257
  GI50: > 100 µM (inactive)
OVCAR-3
  GI50: > 100 µM (inactive)
NCI-H522
  GI50: > 100 µM (inactive)
SN12C
  GI50: > 100 µM (inactive)
HL-60
  GI50: > 100 µM (inactive)
K562
  GI50: > 100 µM (inactive)
SNB-75
  GI50: > 100 µM (inactive)
MDA-N
  GI50: > 100 µM (inactive)
NCI/ADR-RES
  GI50: > 100 µM (inactive)
HOP-92
  GI50: > 100 µM (inactive)
COLO 205
  GI50: > 100 µM (inactive)
SF-539
  GI50: > 100 µM (inactive)
A549
  GI50: > 100 µM (inactive)
TK-10
  GI50: > 100 µM (inactive)
MOLT-4
  GI50: > 100 µM (inactive)
Malme-3M
  GI50: > 100 µM (inactive)
MDA-MB-435
  GI50: > 100 µM (inactive)
RPMI-8226
  GI50: > 100 µM (inactive)
OVCAR-5
  GI50: > 100 µM (inactive)
OVCAR-4
  GI50: > 100 µM (inactive)
IGROV-1
  GI50: > 100 µM (inactive)
UACC-62
  GI50: > 100 µM (inactive)
SW-620
  GI50: > 100 µM (inactive)
KM12
  GI50: > 100 µM (inactive)
MCF7
  GI50: > 100 µM (inactive)
U-251
  GI50: > 100 µM (inactive)
BT-549
  GI50: > 100 µM (inactive)
DU-145
  GI50: > 100 µM (inactive)
LOX IMVI
  GI50: > 100 µM (inactive)
SF-268
  GI50: > 100 µM (inactive)

## COc1ccc2ccc3oc(=O)c(C)cc3c2c1
CAKI-1
  GI50: > 100 µM (inactive)
T47D
  GI50: 43.3 µM (inactive)
UO-31
  GI50: 25.2 µM (inactive)
SR
  GI50: > 100 µM (inactive)
HT-29
  GI50: > 100 µM (inactive)
SF-295
  GI50: > 100 µM (inactive)
EKVX
  GI50: 8.32 µM (inactive)
RXF 393
  GI50: > 100 µM (inactive)
HCT-116
  GI50: > 100 µM (inactive)
Hs-578T
  GI50: 78 µM (inactive)
SK-MEL-5
  GI50: > 100 µM (inactive)
NCI-H23
  GI50: > 100 µM (inactive)
PC-3
  GI50: > 100 µM (inactive)
HOP-62
  GI50: > 100 µM (inactive)
NCI-H460
  GI50: > 100 µM (inactive)
OVCAR-8
  GI50: > 100 µM (inactive)
SK-MEL-2
  GI50: > 100 µM (inactive)
SK-MEL-28
  GI50: > 100 µM (inactive)
NCI-H226
  GI50: > 100 µM (inactive)
ACHN
  GI50: > 100 µM (inactive)
HCC 2998
  GI50: 39.6 µM (inactive)
MDA-MB-231
  GI50: 33.9 µM (inactive)
786-0
  GI50: > 100 µM (inactive)
CCRF-CEM
  GI50: > 100 µM (inactive)
M14
  GI50: > 100 µM (inactive)
A498
  GI50: > 100 µM (inactive)
UACC-257
  GI50: > 100 µM (inactive)
OVCAR-3
  GI50: > 100 µM (inactive)
NCI-H522
  GI50: > 100 µM (inactive)
SN12C
  GI50: > 100 µM (inactive)
HL-60
  GI50: > 100 µM (inactive)
K562
  GI50: > 100 µM (inactive)
SNB-75
  GI50: 28.8 µM (inactive)
MDA-N
  GI50: > 100 µM (inactive)
NCI/ADR-RES
  GI50: > 100 µM (inactive)
SNB-19
  GI50: > 100 µM (inactive)
HOP-92
  GI50: > 10 µM (inactive)
COLO 205
  GI50: > 100 µM (inactive)
SF-539
  GI50: > 100 µM (inactive)
A549
  GI50: > 100 µM (inactive)
TK-10
  GI50: > 100 µM (inactive)
MOLT-4
  GI50: > 100 µM (inactive)
Malme-3M
  GI50: > 100 µM (inactive)
MDA-MB-435
  GI50: > 100 µM (inactive)
RPMI-8226
  GI50: > 100 µM (inactive)
OVCAR-5
  GI50: > 100 µM (inactive)
OVCAR-4
  GI50: > 100 µM (inactive)
IGROV-1
  GI50: > 100 µM (inactive)
UACC-62
  GI50: 10.9 µM (inactive)
SW-620
  GI50: > 100 µM (inactive)
KM12
  GI50: > 100 µM (inactive)
MCF7
  GI50: > 100 µM (inactive)
U-251
  GI50: > 100 µM (inactive)
BT-549
  GI50: > 100 µM (inactive)
DU-145
  GI50: > 100 µM (inactive)
LOX IMVI
  GI50: > 100 µM (inactive)
SF-268
  GI50: > 100 µM (inactive)
